Article PMC9107566, “Metabolic engineering of Escherichia coli for efficient degradation of 4-fluorophenol” (AMB Express, 2022)

Biological target: T1, FpdA2 (Arthrobacter sp. IF1, UniProt D1MYT1)
T1 construct: co-expressed with flavin reductase FpdB, FpdC and FpdD; not purified
T1 sequence (D1MYT1 1-535): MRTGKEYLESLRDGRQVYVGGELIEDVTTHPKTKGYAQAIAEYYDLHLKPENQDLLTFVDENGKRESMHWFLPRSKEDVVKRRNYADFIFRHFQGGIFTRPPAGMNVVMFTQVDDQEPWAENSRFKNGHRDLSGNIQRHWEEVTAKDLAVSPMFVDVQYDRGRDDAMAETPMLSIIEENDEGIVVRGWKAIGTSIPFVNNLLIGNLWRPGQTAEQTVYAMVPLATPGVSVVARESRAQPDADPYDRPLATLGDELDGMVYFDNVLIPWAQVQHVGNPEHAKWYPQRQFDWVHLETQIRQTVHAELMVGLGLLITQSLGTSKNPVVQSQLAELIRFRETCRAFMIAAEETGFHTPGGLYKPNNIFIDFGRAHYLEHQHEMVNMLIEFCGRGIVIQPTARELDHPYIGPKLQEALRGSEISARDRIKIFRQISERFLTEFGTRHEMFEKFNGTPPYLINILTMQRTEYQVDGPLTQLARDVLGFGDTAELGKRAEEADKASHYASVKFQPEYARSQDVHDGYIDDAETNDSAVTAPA
Assay: whole-cell degradation by BL-fpd, HPLC of substrate
Type: cell-based
Conditions: 2 mM substrate, 10 uM FAD added, 37 C, 3 h; induced cells co-expressing FpdB, FpdC, FpdD; empty-vector strain BL-control as control

## Oc1ccc(Br)cc1 [4-bromophenol]
  whole-cell degradation by BL-fpd, HPLC of substrate: FpdA2 showed the highest activity towards 4-bromophenol among the substrates tested
